Assay results reported in patent US11447522B2, “Potent soft anti-inflammatory corticosteroid compounds and uses thereof” (Bodor Laboratories, Inc., priority 2017, dated 2022).
Where two headings read alike, the source gives them in different places.

Tests used:
[1] = system: ovalbumin sensitized and challenged Brown Norway rats; experiment: Airway changes of ovalbumin sensitized and challenged Brown Norway rats, intratracheal administration; assay type: in vivo; settings: for AHR (airways hyperreactivity) ED50: relative response to maximal acetylcholine dose
[2] = system: TNF α-production of LPS-stimulated blood cells; experiment: TNF-α production of lipopolysaccharide-stimulated human blood; assay type: cell-based
Description: (§1) The in vitro anti-inflammatory effect of ED and its analogs was assessed using LPS-induced TNF α-release under various conditions (diluted or undiluted whole human blood, preincubation with sera) to determine the intrinsic anti-inflammatory activity and systemic biological stability of the various compounds.
(§2) Commercially available human cytokine ELISA sets were used. TNF-α and GM-CSF sets were purchased from BD Pharmingen, San Diego, Calif., USA) and the IL-1β set was obtained from R&D Systems (Minneapolis, Minn., USA). ELISA was performed according to the manufacturer's protocol. Cell-free supernatants were tested in duplicate. Detection limits were 7.8 pg/ml for TNF-α, 4.7 pg/ml for GM-CSF, and 3.9 pg/ml for IL-1β. Results were expressed as the mean percentage of inhibition. IC50 values for test compounds were calculated by linear regression.
Peripheral blood from healthy donors was collected aseptically into sterile heparinized (Vacutainer™) tubes. Whole blood samples from each individual were parallel used both undiluted and after 5-fold dilution with RPMI-1640 medium in every experiment. Blood samples were distributed into 24-well plates and incubated with serial concentrations of the test compounds and 1 μg/ml lipopolysaccharide for 24 h at 37° C. in a CO2 thermostat. Controls were treated with lipopolysaccharide and the vehicle (PBS or 0.01% dimethyl sulfoxide in PBS). After incubation, cell-free supernatants were separated by centrifugation (1000 g for 10 minutes) and stored at −20° C. until determination of the amount of TNF-α. Test compounds were examined in blood samples from five different individuals. Two parallel cultures per treatments were run.

[3] = system: mitogen-induced proliferation of PBMC; experiment: Proliferation of lectin-stimulated peripheral mononuclear cells; assay type: cell-based, human; settings: read-out: Prolif.**: Inhibition of mitogen-induced proliferation of PBMC
Description: Mononuclear cells from heparinized peripheral blood of healthy donors were isolated on suitable gradient (Optiprep solution, 1.077 g/ml). Serial dilutions of the test compounds (ranging from 2×10^−6 to 2×10^−8 M) were made in 100 μl of medium per well of sterile round-bottomed 96-well microtiter plate. Control wells contained culture medium only. 100 μl of cell suspension (10^6 cells/ml), containing concanavalin A (2 μg/ml) was added to each well. […] All cultures were done in triplicate. Microtiter plates were incubated for 72 h at 37° C., in 5% CO2 containing humidified atmosphere. For the last 18 h of incubation, [^3H]thymidine was added to the cells cultures, at 0.1 μCi/well final concentration. At the end of the incubation, cells were harvested to glass microfiber filter (Whatman G/F) and associated radioactivity was determined by liquid scintillation.

[4] = system: IL-1β from the human monocyte cell line THP-1; experiment: IL-1β production of stimulated THP.1 cells; assay type: cell-based
Description: as §2
THP.1 cells (human monocytic cell line: American Type Culture Collection. Rockville, Md., USA) were maintained in RPMI-1640 medium, supplemented with 10% FCS, 5×10^−5 M 2-merkapto-ethanol, 2 mM glutamine and antibiotics, and were split in every 3rd days. To examine the effect of test compounds 2×10^6 cells/well (24 well plates in 1 ml/well volume) were stimulated with 1 μg/ml LPS and 25 μg/ml silica for IL-1β production as described previously (Németh et al. 1995). The test compounds were dissolved in RPMI-1640 medium or the medium containing 0.01% DMSO. Two parallel cell cultures per treatment groups were run in three independent experiments. IL-1β levels in cell-free supernatants were determined by ELISA.

[5] = system: TNF-α production of LPS-stimulated whole blood cells; experiment: Stability: inhibition of TNF-α production with or without preincubation of the compounds in human plasma/serum; assay type: cell-based
Description: as §1, §2
Mononuclear cells from peripheral blood of healthy donors were isolated on Ficoll-gradient. One million cells in 0.9 ml of RPMI 1640 medium were distributed into 24-well plates and serial concentrations of the test compounds, made in fresh human serum either instantly or 18 h previously, were added (0.05 ml) together with the lipopolysaccharide (0.05 ml; 1 μg/ml final concentration). Preincubation of the compounds with serum was carried out at 37° C. Processing of the cultures was done as described above.

receptor = settings: scale where dexamethasone is 100; cited from earlier work
TNF-α production = settings: cited from earlier work
[6] = Stability in the presence of human plasma (HPLC/MS/MS); assay type: in vitro ADME; settings: 37° C.
Description: Etiprednol dicloacetate (BNP-166) was added to freshly prepared human plasma of healthy donors at a concentration of 5 ng/ml, and were incubated at 37° C. for different intervals. After incubation the amount of the original compound (ethyl-17α-dichloroacetoxy-11β-hydroxyandostra-1,4-diene-3-one-17β-carboxylate), and one of its main metabolite, M-OH (17α,11β-dihydroxyandostra-1,4-diene-3-one-17β-carboxylate) were determined using an HPLC/MS/MS method. In brief: Fluocinolone acetonide served as internal standard (20 ng/ml), samples were extracted with a liquid-liquid extraction on Extrelut® columns, and were separated on a Purospher STAR 30×2 mm (3 μm) reversed phase column at a flow rate of 0.3 ml/min, using a linear gradient with a mobile phase system containing acetonitrile, water and acetic acid. Determination were performed on a triple quadrupole mass spectrometer (Perkin-Elmer SCIEX API 2000) supplied with an electrospray interface operated in the positive ionization mode. The multiple ion monitoring, parent→daughter ion transitions of 485.2→265.2, 375.2→265.2 and 495.2→337.2 were used for the quantification of etiprednol dicloacetate, its M-OH metabolite and for the internal standard respectively. Results are expressed as peak areas normalized to the internal control. Stability of the selected ED analogs (10, 11, 13, 17, 21, 25) were determined as described above for ED (3).

[7] = intratracheal, 2 hours prior challenge
[8] = intratracheal, 2 hours prior challenge, minimal statistically significantly effective dose
[9] = diluted blood 1:5, read-out: TNFα* a: Inhibition of TNF α-production of LPS-stimulated blood cells
[10] = undiluted blood, read-out: TNFα* b: Inhibition of TNF α-production of LPS-stimulated blood cells
[11] = non-preincubated in human plasma, read-out: Stability*** c: Inhibition of TNF-α production of LPS-stimulated whole blood cells
[12] = preincubated overnight in human plasma, read-out: Stability*** d: Inhibition of TNF-α production of LPS-stimulated whole blood cells

Row | Compound | Edema formation ED50 [1, 7] [µg/kg] | Eosinophilia BALF ED50 [1, 7] [µg/kg] | Eosinophilia Perivascular ED50 [1, 7] [µg/kg] | Mucus production ED50 [1, 7] [µg/kg] | Mucus production, second line (dose type not given) [1, 7] [µg/kg] | AHR (airways hyperreactivity) MSED [1, 8] | Edema formation MSED [1, 8] [µg/kg] | Eosinophilia BALF MSED [1, 8] [µg/kg] | Eosinophilia Perivascular MSED [1, 8] [µg/kg] | AHR (airways hyperreactivity) ED50 [1, 7] | IC50 [2, 9] [nM] | IC50 [2, 10] [nM] | IC50 [3] [nM] | IC50 [5, 11] [nM] | IC50 [5, 12] [nM] | relative receptor binding activity (RRBA) (receptor) | stability in the presence of human plasma [6] | further results
1 | CCOC(=O)[C@@]1(OC(=O)C(Cl)Cl)CC[C@H]2[C@@H]3CCC4=CC(=O)C=C[C@]4(C)[C@H]3[C@@H](O)C[C@@]21C [Compound 3, Ethyl 17α-dichloroacetoxy-11β-hydroxyandrosta-1,4-diene-3-one-17β-carboxylate] | 2.9 | ≤0.1 | >100 | 13.8 | 0.1 | ≈1.0 μg/kg | 0.1 | 0.1 | 1.0 | ≈1.0 μg/kg | 27 | 103 | 10 | 73 | 2700 | ~200 |  | Eosinophilia Peribronchial ED50 [1, 7]: 0.62 µg/kg; Eosinophilia Peribronchial MSED [1, 8]: 0.1 µg/kg; inhibition of the liberation of IL-1β [4]: significantly inhibited; loss of activity during incubation (TNF-α production; five days): 100 fold; loss of activity during incubation (TNF-α production; two days): five-fold
2 | C[C@@H]1C[C@H]2[C@@H]3C[C@H](F)C4=CC(=O)C=C[C@]4(C)[C@@]3(F)[C@@H](O)C[C@]2(C)[C@@]1(OC(=O)C(Cl)Cl)C(=O)OCF [Compound 21, Fluoromethyl 17α-dichloroacetoxy-6α,9α-difluoro-11β-hydroxy-16α-methyl-3-oxoandrosta-1,4-diene-17β-carboxylate] |  |  |  |  |  |  |  |  |  |  | 1.4 | 4.5 | 9 | 1.4 | 25 |  | particularly stable | 
3 | C[C@@H]1C[C@H]2[C@@H]3C[C@H](F)C4=CC(=O)C=C[C@]4(C)[C@@]3(F)[C@@H](O)C[C@]2(C)[C@@]1(OC(=O)C(Cl)Cl)C(=O)SCF [Compound 25, S-Fluoromethyl 17α-dichloroacetoxy-6α,9α-difluoro-11β-hydroxy-16α-methyl-3-oxoandrosta-1,4-diene-17β-carbothioate] | <1.0 | 16.1 | 83.8 | 7.42 | 100 | 10 µg/kg | 1.0 | 1.0 | 1.0 | 3.75 µg/kg | 2 | 3 | 0.1 | 1 | 87 |  | particularly stable | overall in vivo activity compared with the parent steroid ([1]; Table 2 parameters): overall superior to FLU; BALF protein ED50 ([1]; intratracheal, 2 hours prior challenge, broncho-alveolar lavage fluid): 0.64 µg/kg; BALF protein MSED [1, 8]: 100 µg/kg
4 | CCOC(=O)O[C@]1(C(=O)OCCl)CCC2C3CCC4=CC(=O)C=CC4(C)C3[C@@H](O)CC21C (stereo partly drawn) [LE, chloromethyl 17α-ethoxycarbonyloxy-11β-hydroxyandrosta-1,4-dien-3-one-17β-carboxylate] |  |  |  |  |  |  |  |  |  |  |  |  |  |  |  | 160 |  | 
